Data on 31 molecules can be found in US8871754B2, “Compounds and compositions for the treatment of parasitic diseases” (IRM LLC, priority 2012, dated 2014).

Where only a bound is given, the exact number is not on record here.

The subject of the first test is P. falciparum (NF54 or 3D7 strain) in infected human erythrocytes. Description: Assay for P. falciparum proliferation in infected human blood cells (SYBR Green). As to conditions: Plasmodium falciparum, Erythrocyte, 72 h, read-out: EC50 (nM), inhibitory efficacy in delaying P. falciparum proliferation in infected human blood cells. It is filed as cell-based. How it is done:
Assay for P. falciparum Proliferation in Infected Human Blood Cells
Compounds of the invention can be assayed to measure their capacity to inhibit proliferation of P. falciparum parasitemia in infected red blood cells. This parasite proliferation assay measures the increase in parasite DNA content using a DNA intercalating dye, SYBR Green® (INVITROGEN®) which has a high affinity for double stranded DNA.
NF54 or 3D7 P. falciparum strain is grown in complete culturing media until parasitemia reaches 3% to 8% with O+ human erythrocytes. […] 20 μl of screening media is dispensed into 384 well assay plates. 50 nl of compounds of the invention (in DMSO), including antimalarial controls (mefloquine, pyrimethamine and artemisinin), are then transferred into the assay plates, as well as DMSO alone to serve as a negative control for inhibition. Then 30 μl of a suspension of a NF54 or 3D7 P. falciparum infected erythrocytes in screening media is dispensed into the assay plates such that the final hematocrit is 2.5% with a final parasitemia of 0.3%. The plates are placed in a 37° C. incubator for 72 hours in a low oxygen environment containing 93% N2, 4% CO2, and 3% O2 gas mixture. 10 μl of lysis buffer (saponin, triton-X, EDTA) containing a 10× solution of SYBR Green I® in RPMI media is dispensed into the plates. The plates are lidded and kept at room temperature overnight for the lysis of the infected red blood cells. The fluorescence intensity is measured (excitation […], emission 530 nm) using the Envision™ system (Perkin Elmer). The percentage inhibition of 50%, […], is calculated for each compound.
For the molecule `Fc1ccc(CCc2ccn3ncc(-c4ccc(C(F)(F)F)cc4)c3c2)cc1` [Example 16, 5-(4-fluorophenethyl)-3-(4-(trifluoromethyl)phenyl)pyrazolo[1,5-a]pyridine], the EC50 turned out to be 477 nM.

Staying with this test, now noted: Plasmodium falciparum, Erythrocyte; NF54 or 3D7 strain, 72 hours, SYBR Green fluorescence; read-out: EC50 (nM), inhibitory efficacy in delaying P. falciparum proliferation in infected human blood cells.
In the case of `CN(C(=O)Nc1ccc(F)cc1)c1ccn2ncc(-c3ccc(C(F)(F)F)cc3)c2c1` [Example 47, 3-(4-fluorophenyl)-1-methyl-1-(3-(4-(trifluoromethyl)phenyl)pyrazolo[1,5-a]pyridin-5-yl)urea], the EC50 was more than 9000 nM.
As to `CC(C)[C@H](N)C(=O)Nc1ccc(-c2cnn3ccc(C(=O)N(C)c4ccc(C#N)cc4)cc23)cc1` [Example 45, (S)-3-(4-(2-amino-3-methylbutanamido)phenyl)-N-(4-cyanophenyl)-N-methylpyrazolo[1,5-a]pyridine-5-carboxamide], the EC50 came to 16 nM.
On the same count and under the same terms, then `CN(C)CCN(C(=O)c1ccn2ncc(-c3ccc(C(F)(F)F)cc3)c2c1)c1ccc(C#N)cc1` [Example 10, N-(4-cyanophenyl)-N-(2-(dimethylamino)ethyl)-3-(4-(trifluoromethyl)phenyl)pyrazolo[1,5-a]pyridine-5-carboxamide], with 7 nM; and `CN(C(=O)c1ccn2ncc(-c3cnc(N)c(F)c3)c2c1)c1ccc(C#N)cc1` [Example 79, 3-(6-amino-5-fluoropyridin-3-yl)-N-(4-cyanophenyl)-N-methylpyrazolo[1,5-a]pyridine-5-carboxamide], with 7 nM.
On the same count and under the same terms, with `CN(C(=O)c1ccn2ncc(-c3ccc4c(cnn4C)c3)c2c1)c1ccc(C#N)cc1` [Example 17, N-(4-cyanophenyl)-N-methyl-3-(1-methyl-1H-indazol-5-yl)pyrazolo[1,5-a]pyridine-5-carboxamide] the figure was 3 nM.
The same measure, in the same setting: then `CS(=O)(=O)c1ccc(N(CC2CCOCC2)C(=O)c2ccn3ncc(-c4ccc(C(F)(F)F)cc4)c3c2)cc1` [Example 12, N-(4-(methylsulfonyl)phenyl)-N-((tetrahydro-2H-pyran-4-yl)methyl)-3-(4-(trifluoromethyl)phenyl)pyrazolo[1,5-a]pyridine-5-carboxamide], with 9 nM; and `CN(C(=O)c1ccn2ncc(-c3cnc(N)nc3)c2c1)c1ccc(C#N)cc1` [Example 83, 3-(2-aminopyrimidin-5-yl)-N-(4-cyanophenyl)-N-methylpyrazolo[1,5-a]pyridine-5-carboxamide], with 4 nM; and `CN(Cc1ccc(F)cc1)c1ccn2ncc(-c3ccc(C(F)(F)F)cc3)c2c1` [Example 36, N-(4-fluorobenzyl)-N-methyl-3-(4-(trifluoromethyl)phenyl)pyrazolo[1,5-a]pyridine-5-amine], with 390 nM.
Turning to `CN(C(=O)c1ccn2ncc(-c3cnc4[nH]ccc4c3)c2c1)c1ccc(C#N)cn1` [Example 53, N-(5-cyanopyridin-2-yl)-N-methyl-3-(1H-pyrrolo[2,3-b]pyridin-5-yl)pyrazolo[1,5-a]pyridine-5-carboxamide], the EC50 was 1 nM.
Still for that read-out and setting: then `C[C@H](N)C(=O)Nc1ccc(-c2cnn3ccc(C(=O)N(C)c4ccc(C#N)cc4)cc23)cc1` [Example 26, (S)-3-(4-(2-aminopropanamido)phenyl)-N-(4-cyanophenyl)-N-methylpyrazolo[1,5-a]pyridine-5-carboxamide], with 22 nM.
Turning to `COc1cc(-c2cnn3ccc(C(=O)N(C)c4ccc(C#N)cn4)cc23)cnc1N` [Example 88, 3-(6-amino-5-methoxypyridin-3-yl)-N-(5-cyanopyridin-2-yl)-N-methylpyrazolo[1,5-a]pyridine-5-carboxamide], the EC50 is 83 nM.
Same read-out and setting: with `CNC(=O)c1ccc(-c2cnn3ccc(C(=O)N4CCOc5cc(F)ccc54)cc23)cc1` [Example 73, 4-(5-(7-fluoro-3,4-dihydro-2H-benzo[b][1,4]oxazine-4-carbonyl)pyrazolo[1,5-a]pyridin-3-yl)-N-methylbenzamide] the figure was more than 10000 nM.
The same measure, in the same setting: then `CN(C(=O)c1ccn2ncc(-c3ccc(C(F)(F)F)cc3)c2c1)c1ccc(Cl)cc1` [Example 3, N-(4-chlorophenyl)-N-methyl-3-(4-(trifluoromethyl)phenyl)pyrazolo[1,5-a]pyridine-5-carboxamide], with 94 nM; and `Fc1ccc(SCc2ccn3ncc(-c4ccc(C(F)(F)F)cc4)c3c2)cc1` [Example 21, 5-(((4-fluorophenyl)thio)methyl)-3-(4-(trifluoromethyl)phenyl)pyrazolo[1,5-a]pyridine], with 472 nM; and `CN(C(=O)c1ccn2ncc(-c3ccc(C(N)=O)cn3)c2c1)c1ccc(C#N)cn1` [Example 61, 3-(5-carbamoylpyridin-2-yl)-N-(5-cyanopyridin-2-yl)-N-methylpyrazolo[1,5-a]pyridine-5-carboxamide], with 20 nM.
Same read-out and setting: with `CNC(=O)c1ccc(-c2cnn3ccc(C(=O)N(C)c4ccc(F)cc4)cc23)cc1` [Example 64, N-(4-fluorophenyl)-N-methyl-3-(4-(methylcarbamoyl)phenyl)pyrazolo[1,5-a]pyridine-5-carboxamide] the figure was 20 nM; with `CN(C(=O)c1ccn2ncc(-c3ccc(C(F)(F)F)cn3)c2c1)c1ccc(C#N)cc1` [Example 24, N-(4-cyanophenyl)-N-methyl-3-(5-(trifluoromethyl)109yridine-2-yl)pyrazolo[1,5-a]pyridine-5-carboxamide], 10 nM.
As for `CN(C(=O)c1ccn2ncc(-c3cnc4[nH]ccc4c3)c2c1)c1ccc(S(C)(=O)=O)cn1` [Example 58, N-methyl-N-(5-(methylsulfonyl)pyridin-2-yl)-3-(1H-pyrrolo[2,3-b]pyridin-5-yl)pyrazolo[1,5-a]pyridine-5-carboxamide], the EC50 is 30 nM.
With `Cc1ccc(N(C)C(C)c2ccn3ncc(-c4ccc(C(N)=O)cc4)c3c2)nc1` (stereo not shown) [Example 65, 4-(5-(1-(methyl(5-methylpyridin-2-yl)amino)ethyl)pyrazolo[1,5-a]pyridin-3-yl)benzamide], the EC50 is 504 nM.
Take `CN(Cc1ccn2ncc(-c3ccc(C(F)(F)F)cc3)c2c1)c1ccc(F)cc1` [Example 2, 4-fluoro-N-methyl-N-((3-(4-(trifluoromethyl)phenyl)pyrazolo[1,5-a]pyridine-5-yl)methyl)aniline]: the EC50 was determined as 342 nM.
In the case of `CC(=O)Nc1ccc(-c2cnn3ccc(C(=O)N(C)c4ccc(C#N)cn4)cc23)cc1` [Example 69, 3-(4-acetamidophenyl)-N-(5-cyanopyridin-2-yl)-N-methylpyrazolo[1,5-a]pyridine-5-carboxamide], the EC50 came out at 13 nM.
Still for that read-out and setting: then `CN(C(=O)c1ccn2ncc(-c3ccc(C(F)(F)F)cc3)c2c1)c1ccc(F)cc1` [Example 4, N-(4-fluorophenyl)-N-methyl-3-(4-(trifluoromethyl)phenyl)pyrazolo[1,5-a]pyridine-5-carboxamide], with 46 nM; and `CN(C(=O)c1ccn2ncc(-c3ccc(-c4ccn[nH]4)cc3)c2c1)c1ccc(C#N)cc1` [Example 23, 3-(4-(1H-pyrazol-5-yl)phenyl)-N-(4-cyanophenyl)-N-methylpyrazolo[1,5-a]pyridine-5-carboxamide], with 2 nM; and `CN(C(=O)c1ccc(C(C)(F)F)nc1)c1ccn2ncc(-c3ccc(C(F)(F)F)cc3)c2c1` [Example 48, 6-(1,1-difluoroethyl)-N-methyl-N-(3-(4-(trifluoromethyl)phenyl)pyrazolo[1,5-a]pyridin-5-yl)nicotinamide], with 288 nM.
As for `CN(c1ccn2ncc(-c3ccc(C(F)(F)F)cc3)c2c1)S(=O)(=O)c1ccc(C#N)cc1` [Example 30, 4-cyano-N-methyl-N-(3-(4-(trifluoromethyl)phenyl)pyrazolo[1,5-a]pyridine-5-yl)benzenesulfonamide], the EC50 was 62 nM.
As to `CN(C(=O)c1ccc(F)cn1)c1ccn2ncc(-c3ccc(C(F)(F)F)cc3)c2c1` [Example 51, 5-fluoro-N-methyl-N-(3-(4-(trifluoromethyl)phenyl)pyrazolo[1,5-a]pyridin-5-yl)picolinamide], the EC50 worked out at 60 nM.
Take `Cc1ccc(OCc2ccn3ncc(-c4ccc(C(F)(F)F)cc4)c3c2)nc1` [Example 15, 5-(((5-methylpyridin-2-yl)oxy)methyl)-3-(4-(trifluoromethyl)phenyl)pyrazolo[1,5-a]pyridine]: the EC50 worked out at 2320 nM.
`COCCN(C(=O)c1ccn2ncc(-c3ccc(C(F)(F)F)cc3)c2c1)c1ccc(C#N)cc1` [Example 9, N-(4-cyanophenyl)-N-(2-methoxyethyl)-3-(4-(trifluoromethyl)phenyl)pyrazolo[1,5-a]pyridine-5-carboxamide]: the EC50 is 6 nM.
Still for that read-out and setting: with `COc1ccc(-c2cnn3ccc(C(=O)N(C)c4ccc(C#N)cn4)cc23)nc1` [Example 60, N-(5-cyanopyridin-2-yl)-3-(5-methoxypyridin-2-yl)-N-methylpyrazolo[1,5-a]pyridine-5-carboxamide] the figure was 683 nM; with `Cc1ccc(N(C)C(=O)c2ccn3ncc(-c4ccc(C(F)(F)F)cc4)c3c2)nc1` [Example 5, N-methyl-N-(5-methylpyridin-2-yl)-3-(4-(trifluoromethyl)phenyl)pyrazolo[1,5-a]pyridine-5-carboxamide], 88 nM.
